In PubChem BioAssay (NCI):
Several values for one entry are separate records, joined by “and”; a condition that tells them apart may be missing. Equal entries are not always repeated.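 These data come from cells grown in 96-well plates and exposed to compound for 48 hours at five concentrations. GI50 = concentration required for 50% inhibition of growth. The concentration for full growth arrest is given as TGI.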

How the values were obtained:
Assay in all cases: NCI-60 cell line screen, 48 h
SF-295 CNS = test system: SF-295 CNS
MALME-3M melanoma = test system: MALME-3M melanoma
DMS 273 small cell lung = test system: DMS 273 small cell lung
UACC-257 melanoma = test system: UACC-257 melanoma
SK-MEL-5 melanoma = test system: SK-MEL-5 melanoma
HL-60(TB) leukemia = test system: HL-60(TB) leukemia
SW-620 colon = test system: SW-620 colon
SK-MEL-2 melanoma = test system: SK-MEL-2 melanoma
DMS 114 small cell lung = test system: DMS 114 small cell lung
RXF 393 renal = test system: RXF 393 renal
MDA-MB-435 = test system: MDA-MB-435
SNB-19 CNS = test system: SNB-19 CNS
M19-MEL melanoma = test system: M19-MEL melanoma
NCI-H23 lung = test system: NCI-H23 lung
HOP-62 NSCLC = test system: HOP-62 NSCLC

**Q.** `C/C(=C\COc1ccc2ccc(=O)oc2c1)C1=CC(=O)C(C)(C)O1` was tested. Which GI50 (SF-295 CNS) did it give?
**A.** The GI50 was 4.3 µM.

**Q.** What about the TGI (SF-295 CNS) of the same compound?
**A.** The TGI was 20.4 µM and 8.41 µM.

**Q.** And the TGI (MALME-3M melanoma)?
**A.** The TGI was 25.6 µM and 14.8 µM.

**Q.** And the TGI (DMS 273 small cell lung)?
**A.** The TGI was 27.9 µM.

**Q.** And the GI50 (UACC-257 melanoma)?
**A.** The GI50 was 7.22 µM.

**Q.** And the TGI (UACC-257 melanoma)?
**A.** The TGI was 29.7 µM and 11.3 µM.

**Q.** What about the GI50 (SK-MEL-5 melanoma) of the same compound?
**A.** Its GI50 is 2720 nM.

**Q.** What about the TGI (SK-MEL-5 melanoma) of the same compound?
**A.** The TGI was 13.3 µM and 6.95 µM.

**Q.** And the GI50 (HL-60(TB) leukemia)?
**A.** Its GI50 is 1760 nM.

**Q.** And the TGI (HL-60(TB) leukemia)?
**A.** The TGI was 5.09 µM and 16.9 µM.

**Q.** And the GI50 (SW-620 colon)?
**A.** The GI50 was 2270 nM.

**Q.** And the TGI (SW-620 colon)?
**A.** The TGI was 5.58 µM and 14.7 µM.

**Q.** And the GI50 (SK-MEL-2 melanoma)?
**A.** Its GI50 is 4.19 µM.

**Q.** And the TGI (SK-MEL-2 melanoma)?
**A.** The TGI was 23.2 µM and 15.1 µM.

**Q.** And the TGI (DMS 114 small cell lung)?
**A.** The TGI was 9.44 µM.

**Q.** And the GI50 (RXF 393 renal)?
**A.** Its GI50 is 2390 nM.

**Q.** And the TGI (RXF 393 renal)?
**A.** The TGI was 12.2 µM and 5.61 µM.

**Q.** And the TGI (MDA-MB-435)?
**A.** Its TGI is 13.2 µM.

**Q.** And the GI50 (SNB-19 CNS)?
**A.** Its GI50 is 2940 nM.

**Q.** What about the TGI (SNB-19 CNS) of the same compound?
**A.** Its TGI is 8.22 µM and 30.5 µM.

**Q.** What about the TGI (M19-MEL melanoma) of the same compound?
**A.** The TGI was 14.6 µM.

**Q.** What about the GI50 (NCI-H23 lung) of the same compound?
**A.** The GI50 was 2790 nM.

**Q.** What about the TGI (NCI-H23 lung) of the same compound?
**A.** Its TGI is 12.3 µM and 8.98 µM.

**Q.** What about the GI50 (HOP-62 NSCLC) of the same compound?
**A.** The GI50 was 6.12 µM.

**Q.** What about the TGI (HOP-62 NSCLC) of the same compound?
**A.** The TGI was 39.7 µM and 14.1 µM.
